Among the data in patent US12516038B2, “Inhibitors of antigen presentation by HLA-DR” (Janssen Pharmaceutica NV, priority 2020, dated 2026) are IC50 values, retold here.

pIC50: −log10 of the molar value.

Experiment [1] has as its system human peripheral blood CD4+ helper T cells. The experiment can be described thus: Pan-CD4+ T cell activation (off-target assay). The following applies: Homo sapiens, T-cell, 24 h, anti-CD3/anti-CD28 stimulation, IL-2 production by ELISA. The format is cell-based. A digest of the protocol:
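Human peripheral blood CD4+ T cells, with no APCs present, were stimulated with plate-bound anti-CD3 (1 μg/mL coating) plus soluble anti-CD28 (1 μg/mL) in the presence of compound or vehicle for 24 h. IL-2 in the supernatant was quantified by ELISA.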
For orientation: ELISA stands for enzyme-linked immunosorbent assay.

In experiment [2] the test system is HLA-DR4 restricted mouse T cell hybridoma line (DR4.CII.36.8) with HLA-DRB1*04:01-expressing Boleth cells. The experiment can be described thus: HLA-DR4-restricted peptide-specific T cell-based assay (hybridoma assay). The following applies: Mus musculus, T-cell, 6 h, inhibition of IL-2 production, CII259-273 peptide presented by Boleth cells. In outline:
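Boleth cells (HLA-DRB1*04:01 B cell line) pre-incubated with compound 1 h at 37° C. in DMEM/1% FCS, then DR4.CII.36.8 mouse T cell hybridoma (CII259-273-specific) added for 6 h with CII259-273 peptide. Supernatant mouse IL-2 by AlphaLISA; IC50 by 4-PL fit of 8-point duplicate titrations.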

Experiment [3] has as its target HLA-DRB1*0401 (Homo sapiens (Human), UniProt P01903+P01911, A100K/A169T/DEL228-266/F76Y/I96L/K127E/L162R/M171V/N62H/P40V/Q125Y/R42H/S133A/S149N/S66Y/V115G/V209L/W38E). Kind of experiment: HLA-DR4 HTRF assay. The format is binding. The following applies: inhibition of loading of Alexa Fluor 647-labeled Cit-CII peptide onto HLA-DR4 (CLIP cleaved). In outline:
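HLA-DRB1*04:01 construct (α/β fused to human Fc, CLIP pre-cleaved by HRV3C overnight at 4° C) at 3 nM was preincubated 45 min with compound and 1 nM anti-Fc-Tb donor, then 40 nM Alexa647-Cit-CII1236-1249 peptide added. After 90 min at 37° C, the 665/620 nm HTRF ratio gave % inhibition; IC50 by nonlinear regression.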

`CCc1cc(O[C@@H](c2ccncc2)c2ccc(C(N)=O)cc2)cc2c1C(=O)CCO2` (single isomer, unassigned) [Example 99a, (*R)-4-(((5-ethyl-4-oxochroman-7-yl)oxy)(pyridin-4-yl)methyl)benzamide]: the results for the pIC50 in experiment [1], in experiment [2] and in experiment [3] were 5.51, 6.23 and 4.38, respectively.
`Cc1cc2c(cc1O[C@@H](c1ccncc1)c1ccc(C(N)=O)cc1)OCCC2=O` (single isomer, unassigned) [Example 49a, (*R)-4-(((6-Methyl-4-oxochroman-7-yl)oxy)(pyridin-4-yl)methyl)benzamide]: the pIC50 (commonly the IC50 on a negative log10 scale, so that one unit is a factor of ten) in experiment [1] is 5.00; in experiment [2] it was 6.70; in experiment [3], 6.24.
The like results for `CC1(C)COc2cc(O[C@H](c3ccncc3)c3ccc(C(N)=O)cc3)ccc2C1=O` (single isomer, unassigned) [Example 56b, (*S)-4-(((3,3-dimethyl-4-oxochroman-7-yl)oxy)(pyridin-4-yl)methyl)benzamide] were, in that order, below 4.82, 5.22 and 5.89.
With `NC(=O)c1ccc([C@H](Oc2ccc3c(c2)OCCC3=O)c2ccnc(C(F)(F)F)c2)cc1` (single isomer, unassigned) [Example 18b, (*S)-4-(((4-oxochroman-7-yl)oxy)(2-(trifluoromethyl)pyridin-4-yl)methyl)benzamide], the negative logarithm of the IC50 (pIC50) in experiment [1] is 5.00; in experiment [2] it was 4.92; in experiment [3], 6.02.
As to `O=C1CCOc2cc(O[C@H](c3ccccc3)c3ccncc3)ccc21` (single isomer, unassigned) [Example 114a, (*R)-7-(phenyl(pyridin-4-yl)methoxy)chroman-4-one], the pIC50 was below 4.82 in experiment [1], 5.26 in experiment [2] and 5.85 in experiment [3].
On to `N#Cc1c(O[C@H](c2ccncc2)c2ccc(C(N)=O)cc2)ccc2c1OCCC2=O` (single isomer, unassigned) [Example 78b, (*S)-4-(((8-cyano-4-oxochroman-7-yl)oxy)(pyridin-4-yl)methyl)benzamide], for which the pIC50 in experiment [1] is 4.82; in experiment [2], 6.33; in experiment [3], 6.35.
On to `CN(C)C(=O)c1ccc([C@@H](Oc2ccc3c(c2)OCCC3=O)c2ccncc2)cc1` (single isomer, unassigned) [Example 72a, (*R)—N,N-dimethyl-4-(((4-oxochroman-7-yl)oxy)(pyridin-4-yl)methyl)benzamide], for which the pIC50 in experiment [1] is 5.00; in experiment [2], 5.20; in experiment [3], 6.08.
On to `O=C1CCOc2cc(OC(c3ccccc3)c3cccnc3)ccc21` (racemic) [Example 115, (R,S)-7-(Phenyl(pyridin-3-yl)methoxy)chroman-4-one], for which the pIC50 in experiment [1] was 4.82; in experiment [2], 4.92; in experiment [3] it was 5.30.
Take `NC(=O)c1ccc([C@H](Oc2ccc3c(c2)OCCC3=O)c2ccccc2)cc1` (single isomer, unassigned) [Example 29a, (*R)-4-(((4-oxochroman-7-yl)oxy)(phenyl)methyl)benzamide]: the pIC50 in experiment [1] is below 4.82; in experiment [2], 5.64; in experiment [3], 5.96.
The like results for `O=C1CCOc2cc(OC(c3ccncc3)c3cccc(F)c3)ccc21` (racemic) [Example 2, (R,S)-7-((3-Fluorophenyl)(pyridin-4-yl)methoxy)chroman-4-one] were, in that order, below 4.82, 5.55 and 6.00.
Taken in the same sequence, the figures for `C[C@@H]1COc2cc(O[C@@H](c3ccncc3)c3ccc(C(N)=O)cc3)ccc2C1=O` (single isomer, unassigned) [Example 44b, 4-((*R)—(((*R)-3-Methyl-4-oxochroman-7-yl)oxy)(pyridin-4-yl)methyl)benzamide] were below 4.82, 5.64 and 5.96.
Regarding `NC(=O)c1ccc([C@@H](Oc2ccc3c(c2Br)OCCC3=O)c2ccncc2)cc1` (single isomer, unassigned) [Example 102a, (*R)-4-(((8-bromo-4-oxochroman-7-yl)oxy)(pyridin-4-yl)methyl)benzamide], the figures for the pIC50 in experiment [1], in experiment [2] and in experiment [3] were 4.82, 7.00 and 4.11, respectively.
The like results for `Cc1c(O[C@@H](c2ccc(C(N)=O)cc2)c2ccccc2C#N)ccc2c1OCCC2=O` (single isomer, unassigned) [Example 61b, (*S)-4-((2-cyanophenyl)((8-methyl-4-oxochroman-7-yl)oxy)methyl)benzamide] were, in that order, below 4.82, 5.28 and 6.02.
Turning to `Cc1c(O[C@@H](c2ccncc2)c2ccc(C(N)=O)cc2OCc2ccccc2)ccc2c1OCCC2=O` (single isomer, unassigned) [Example 86b, (*S)-3-(benzyloxy)-4-(((8-methyl-4-oxochroman-7-yl)oxy)(pyridin-4-yl)methyl)benzamide], the pIC50 is 5.85 in experiment [1], 5.77 in experiment [2] and 6.00 in experiment [3].
For the compound `Cc1cc([C@H](Oc2c(F)cc3c(c2C)OCCC3=O)c2ccc(C(N)=O)cc2)cc(C)n1` (single isomer, unassigned) [Example 94a, (*R)-4-((2,6-dimethylpyridin-4-yl)((6-fluoro-8-methyl-4-oxochroman-7-yl)oxy)methyl)benzamide], the figures for the pIC50 in experiment [1], in experiment [2] and in experiment [3] were 5.00, 7.33 and 6.66, respectively.
As to `COc1ccc([C@@H](Oc2ccc3c(c2)OCCC3=O)c2ccncc2)cc1` (single isomer, unassigned) [Example 12a, (*R)-7-((4-Methoxyphenyl)(pyridin-4-yl)methoxy)chroman-4-one], the values for the pIC50 in experiment [1], in experiment [2] and in experiment [3] were 5.00, 5.59 and 5.70, respectively.
In the case of `COc1cnccc1[C@@H](Oc1ccc2c(c1)OCCC2=O)c1ccc(C(N)=O)cc1` (single isomer, unassigned) [Example 23b, (*S)-4-((3-methoxypyridin-4-yl)((4-oxochroman-7-yl)oxy)methyl)benzamide], the pIC50 in experiment [1] was below 4.82; in experiment [2] it was 5.30; in experiment [3], 6.17.
As for `Cc1c(O[C@H](c2ccc(C(N)=O)cc2)c2ccnc(CCC(=O)O)c2)ccc2c1OCCC2=O` (single isomer, unassigned) [Example 87a], the values for the pIC50 in experiment [1], in experiment [2] and in experiment [3] were below 4.82, 6.08 and 6.24, respectively.
Turning to `O=C1CCOc2cc(O[C@@H](c3ccncc3)c3ccccc3F)ccc21` (single isomer, unassigned) [Example 1b, (*S)-7-((2-Fluorophenyl)(pyridin-4-yl)methoxy)chroman-4-one], the pIC50 in experiment [1] was 5.51; in experiment [2], 5.51; in experiment [3], 5.92.
As for `CCc1cc2c(cc1O[C@@H](c1ccncc1)c1ccc(C(N)=O)cc1)OCCC2=O` (single isomer, unassigned) [Example 74a, (*R)-4-(((6-ethyl-4-oxochroman-7-yl)oxy)(pyridin-4-yl)methyl)benzamide], the pIC50 was 5.66 in experiment [1], 6.92 in experiment [2] and 6.26 in experiment [3].
As to `NC(=O)c1ccc([C@H](Oc2ccc3c(c2Br)OCCC3=O)c2ccncc2)cc1` (single isomer, unassigned) [Example 102b, (*S)-4-(((8-bromo-4-oxochroman-7-yl)oxy)(pyridin-4-yl)methyl)benzamide], the results for the pIC50 in experiment [1], in experiment [2] and in experiment [3] were below 4.82, 7.04 and below 4.05, respectively.
With `COc1ccccc1[C@H](Oc1ccc2c(c1)OCCC2=O)c1ccncc1` (single isomer, unassigned) [Example 14a, (*R)-7-((2-Methoxyphenyl)(pyridin-4-yl)methoxy)chroman-4-one], the pIC50 in experiment [1] is below 4.82; in experiment [2] it was 5.06; in experiment [3] it was 5.72.
Take `COc1ccc(COc2ccc([C@H](Oc3ccc4c(c3)OCCC4=O)c3ccncc3)cc2)cc1` (single isomer, unassigned) [Example 17b, (*S)-7-((4-((4-Methoxybenzyl)oxy)phenyl)(pyridin-4-yl)methoxy)chroman-4-one]: the pIC50 in experiment [1] is 5.32; in experiment [2], 5.11; in experiment [3] it was 5.31.
Consider `NC(=O)c1ccc([C@@H](Oc2ccc3c(c2)OCCC3=O)c2ccncc2)cc1` (single isomer, unassigned) [Example 11a, (*R)-4-(((4-oxochroman-7-yl)oxy)(pyridin-4-yl)methyl)benzamide], for which the negative logarithm of the IC50 (pIC50) in experiment [1] was below 4.82; in experiment [2], 6.34; in experiment [3], 6.14.
The like results for `NC(=O)c1ccc(C(Oc2ccc3c(c2)OCCC3=O)c2ccncc2)cc1` (racemic) [Example 11, (R,S)-4-(((4-Oxochroman-7-yl)oxy)(pyridin-4-yl)methyl)benzamide] were, in that order, below 4.82, 5.92 and 6.19.
